Source: US20230053540A1, “TREATMENT OF LIVER INJURY” (Massachusetts Institute of Technology, priority 2019, published 2023)

Test system: hepatocytes
Assay: Seq-Well scRNA-Seq of hepatocytes after APAP overdose (signature scores, DEG vs untreated)
Assay type: in vivo, mouse
[1] = hepatocytes, cluster A48 (APAP) vs other treatment clusters
[2] = time point A6 vs untreated (UT)

CC(=O)Nc1ccc(O)cc1 [APAP, acetaminophen]
Rdh7 avg_logFC [1]: 0.4684
Reep6 avg_logFC [1]: 0.6233
Retsat avg_logFC [1]: 0.7096
Rgs16 avg_logFC [1]: 0.4545
Rpl38 avg_logFC [1]: 0.3322
Scand1 avg_logFC [1]: 0.2707
Serpina3m avg_logFC [1]: 0.4034
Serpina1d avg_logFC [1]: 0.3053
Serping1 avg_logFC [1]: 0.5777
Slc25a10 avg_logFC [1]: 0.4313
Slc25a20 avg_logFC [1]: 0.3875
Slc25a47 avg_logFC [1]: 0.6175
Slc27a5 avg_logFC [1]: 0.4062
Slc37a4 avg_logFC [1]: 0.4461
Slco1a4 avg_logFC [1]: 0.5091
Snord118 avg_logFC [1]: 0.4771
St3gal5 avg_logFC [1]: 0.5549
Sult1a1 avg_logFC [1]: 0.4827
Syvn1 avg_logFC [1]: 0.3041
Tcea3 avg_logFC [1]: 0.3938
Tef avg_logFC [1]: 0.3394
Tmbim4 avg_logFC [1]: 0.3693
Tmbim6 avg_logFC [1]: 0.3713
Ttc36 avg_logFC [1]: 0.5638
Ttpa avg_logFC [1]: 0.4431
Ttr avg_logFC [1]: 0.4225
Ugt2b5 avg_logFC [1]: 0.4388
Vnn3 avg_logFC [1]: 0.3008
Vtn avg_logFC [1]: 0.5228
Yipf3 avg_logFC [1]: 0.2785
avg_logFC 15-Sep [2]: −0.4092
avg_logFC 0610007P14Rik [2]: −0.257
avg_logFC 0610011F06Rik [2]: −0.3037
avg_logFC 1110008F13Rik [2]: −0.3751
avg_logFC 1110058L19Rik [2]: −0.2581
avg_logFC 1810022K09Rik [2]: −0.3001
avg_logFC 2010107E04Rik [2]: −0.3182
avg_logFC 3110043021Rik [2]: 0.2694
avg_logFC AA474408 [2]: 0.3471
avg_logFC AW112010 [2]: −0.2981
avg_logFC Aadat [2]: −0.3186
avg_logFC Abcc2 [2]: 0.2897
avg_logFC Abcd3 [2]: −0.2718
avg_logFC Abhd14b [2]: −0.3937
avg_logFC Acads [2]: −0.3242
avg_logFC Acbd5 [2]: −0.3952
avg_logFC Acot13 [2]: −0.2886
avg_logFC Actn4 [2]: 0.3124
avg_logFC Adtrp [2]: −0.3664
avg_logFC Agpat2 [2]: −0.2982
avg_logFC Ak2 [2]: −0.3451
avg_logFC Akap11 [2]: 0.3464
avg_logFC Akr1a1 [2]: −0.3269
avg_logFC Akr1e1 [2]: −0.2582
avg_logFC Amy1 [2]: −0.283
avg_logFC Anapc13 [2]: −0.3642
avg_logFC Ankrd11 [2]: 0.4156
avg_logFC Anp32a [2]: −0.317
avg_logFC Anxa5 [2]: 0.3654
avg_logFC Aox3 [2]: −0.3333
avg_logFC Apc [2]: 0.279
avg_logFC Apcs [2]: 0.2989
avg_logFC Apom [2]: −0.3024
avg_logFC Aqp9 [2]: −0.3109
avg_logFC Arl6ip1 [2]: −0.3649
avg_logFC Atf4 [2]: 0.3411
avg_logFC Atf6 [2]: 0.3778
avg_logFC Atp1b1 [2]: 0.3702
avg_logFC Atp2b1 [2]: 0.3321
avg_logFC Atp5c1 [2]: −0.3476
avg_logFC Atp5g3 [2]: −0.3002
avg_logFC Atp5o [2]: −0.3316
avg_logFC BC005537 [2]: 0.3543
avg_logFC Baat [2]: −0.3086
avg_logFC Baz1a [2]: 0.2596
avg_logFC Bckdha [2]: −0.35
avg_logFC Bet1 [2]: −0.2966
avg_logFC Bhmt2 [2]: −0.3114
avg_logFC Bnip3 [2]: −0.3362
avg_logFC Bola3 [2]: −0.3689
avg_logFC Bptf [2]: 0.3245
avg_logFC Bsg [2]: −0.3152
avg_logFC Bst2 [2]: −0.3156
avg_logFC C8b [2]: −0.3159
avg_logFC C130074G19Rik [2]: −0.3563
avg_logFC Car5a [2]: −0.3088
avg_logFC Cars [2]: 0.3158
avg_logFC Cast [2]: 0.4009
avg_logFC Cebpb [2]: −0.3617
avg_logFC Cela1 [2]: −0.2723
avg_logFC Cep85l [2]: 0.2779
avg_logFC Ces1f [2]: −0.3126
avg_logFC Cfhr1 [2]: −0.3253
avg_logFC Chmp4b [2]: 0.3002
avg_logFC Chuk [2]: 0.3724
avg_logFC Cideb [2]: −0.3684
avg_logFC Cisd1 [2]: −0.3727
avg_logFC Cldn2 [2]: −0.2511
avg_logFC Cldn3 [2]: −0.3145
avg_logFC Cnpy2 [2]: −0.3729
avg_logFC Coq9 [2]: −0.3479
avg_logFC Coro1c [2]: 0.3067
avg_logFC Cox6b1 [2]: −0.362
avg_logFC Cox8a [2]: −0.3993
avg_logFC Cpb2 [2]: −0.3215
avg_logFC Cpt1a [2]: 0.2611
avg_logFC Csde1 [2]: 0.3156
avg_logFC Csrp3 [2]: −0.294
avg_logFC Ctsc [2]: 0.361
avg_logFC Cxcl1 [2]: 0.3701
avg_logFC Cybb [2]: 0.3778
avg_logFC Cyp4f14 [2]: −0.2959
avg_logFC Cyp4f15 [2]: −0.2998
avg_logFC Cyp27a1 [2]: −0.3735
avg_logFC D10Jhu81e [2]: −0.3957
avg_logFC D17Wsu92e [2]: 0.2525
avg_logFC Ddah1 [2]: −0.312
avg_logFC Ddx3y [2]: 0.3395
avg_logFC Derl2 [2]: −0.3317
avg_logFC Dgat2 [2]: −0.3433
avg_logFC Dhdh [2]: −0.3348
avg_logFC Dhrs4 [2]: −0.3321
avg_logFC Dhx9 [2]: 0.3504
avg_logFC Dnaja2 [2]: 0.3723
avg_logFC Dnajc5 [2]: 0.3265
avg_logFC Dnajc19 [2]: −0.316
avg_logFC Dync1h1 [2]: 0.3796
avg_logFC Dync1li1 [2]: 0.2624
avg_logFC Ebp [2]: −0.3553
avg_logFC Echs1 [2]: −0.3316
avg_logFC Edf1 [2]: −0.3817
avg_logFC Eef1a1 [2]: 0.2826
avg_logFC Eif3c [2]: 0.302
avg_logFC Eif4b [2]: 0.3682
avg_logFC Eprs [2]: 0.3701
avg_logFC Erbb2ip [2]: 0.3332
avg_logFC Esd [2]: −0.2808
avg_logFC Ethe1 [2]: −0.3334
avg_logFC Etnk1 [2]: 0.316
avg_logFC F10 [2]: −0.2719
avg_logFC Fah [2]: −0.2593
avg_logFC Fam25c [2]: −0.2977
avg_logFC Fam214a [2]: −0.2658
avg_logFC Fbxo21 [2]: −0.2631
avg_logFC Fcna [2]: 0.3774
avg_logFC Fdps [2]: −0.2663
avg_logFC Fkbp4 [2]: −0.3534
avg_logFC Fus [2]: 0.3393
avg_logFC Gadd45g [2]: −0.3554
avg_logFC Gadd45gip1 [2]: −0.3041
avg_logFC Gcdh [2]: −0.3003
avg_logFC Ghr [2]: −0.3648
avg_logFC Gjb1 [2]: −0.3166
avg_logFC Glyctk [2]: −0.2977
avg_logFC Gm2788 [2]: −0.2831
avg_logFC Gm4951 [2]: −0.3221
avg_logFC Gm10800 [2]: 0.5626
avg_logFC Gm24245 [2]: 0.5465
avg_logFC Grhpr [2]: −0.3531
avg_logFC Gsr [2]: 0.4128
avg_logFC Gstm4 [2]: −0.3809
avg_logFC Gyk [2]: 0.3684
avg_logFC Hibch [2]: −0.3271
avg_logFC Hipk3 [2]: 0.3394
avg_logFC Hist1h1c [2]: −0.3009
avg_logFC Hmgcs1 [2]: −0.3491
avg_logFC Hsd17b10 [2]: −0.3772
avg_logFC Hsp90b1 [2]: −0.2615
avg_logFC Hspa5 [2]: 0.2682
avg_logFC Huwe1 [2]: 0.3879
avg_logFC Ifrd1 [2]: 0.4904
avg_logFC Il6ra [2]: 0.3044
avg_logFC Ipo5 [2]: 0.2687
avg_logFC Ipo7 [2]: 0.3246
avg_logFC Ivns1abp [2]: 0.3566
avg_logFC Jhdm1d [2]: 0.3041
avg_logFC Kif21a [2]: 0.4042
avg_logFC Lap3 [2]: −0.3644
avg_logFC Larp4b [2]: 0.3421
avg_logFC Lcp1 [2]: 0.484
avg_logFC Lrrfip2 [2]: 0.3731
avg_logFC Lsmd1 [2]: −0.3131
avg_logFC Macf1 [2]: 0.4042
avg_logFC Mak16 [2]: 0.3171
avg_logFC Map3k5 [2]: 0.3347
avg_logFC Mbl2 [2]: −0.3465
avg_logFC Mcee [2]: −0.3199
avg_logFC Mdh1 [2]: −0.3077
avg_logFC Mdm2 [2]: 0.3283
avg_logFC Metap2 [2]: 0.3686
avg_logFC Mettl7a1 [2]: −0.3221
avg_logFC Mien1 [2]: −0.3704
avg_logFC Mki67ip [2]: 0.3184
avg_logFC Mocs2 [2]: −0.3467
avg_logFC Mpc1 [2]: −0.2802
avg_logFC Mrc1 [2]: 0.3404
avg_logFC Mrp133 [2]: −0.2654
avg_logFC Mrpl11 [2]: −0.2685
avg_logFC Mrpl12 [2]: −0.3082
avg_logFC Mrpl15 [2]: −0.2912
avg_logFC Mrpl34 [2]: −0.2838
avg_logFC Mrpl41 [2]: −0.2674
